Data: patent US20060111357A1, “Quinoline compounds for use in mch receptor related disorders” (priority 2003, published 2006)
Read-outs that look alike come from different tables or passages of the source.

Columns and labels:
human MCH-1 receptor [1] = biological target: T1, human MCH-1 receptor (Homo sapiens, UniProt Q99705); test: Phosphatidylinositol (IP3) assay, MCH-stimulated turnover; assay type: cell-based
T1 construct: expressed in transfected cells; host or cells: transiently transfected COS-7 cells or stably transfected CHO cells (pcDNA3.1)
Experimental: (§1) Transfections and Tissue Culture—The cDNA encoding the human MCH-1 receptor was cloned from a human brain cDNA library and cloned into the eukaryotic expression vector pcDNA3.1 (Invitrogen). Assays were performed on transiently transfected COS-7 cells or stably transfected CHO (Chinese Hamster Ovary) cells, expressing the human MCH-1 receptor in pcDNA3.1. […] Clones were screened by a MCH receptor radioligand binding assay (as described below).
Phosphatidylinositol assay—To assay phosphatidylinositol turnover, transiently transfected COS-7 cells or stably transfected CHO cells, expressing human MCH-1 receptor (2×10^5 cells/well) were incubated for 24 h with 5 μCi of (^3H]-myo-inositol (Amersham Pharmacia Biotech) in 0.5 ml inositol-free culture medium. Cells were washed twice in PI-buffer: 20 mM HEPES, pH 7.4, supplemented with 140 mM NaCl, 5 mM KCl, 1 mM MgSO4, 1 mM CaCl2, 10 mM glucose, 0.02% (w/v) bovine serum; and were incubated in 0.5 ml PI-buffer supplemented with 10 mM LiCl at 37° C. for 45 min.
Phosphatidylinositol turnover was stimulated by submaximal concentrations of MCH, i.e. 10 nM in the presence of increasing amounts of ligand. The ligand was added 5 min. before adding the agonist (MCH). Cells were extracted with 10 mM ice-cold Formic acid, and the generated [^3H]-inositol phosphates were purified on Bio-Rad AG 1-X8 anion-exchange resin. Determinations were made in duplicate. PI data were analyzed and IC50 values determined by non-linear regression using the Prism software (GraphPad software, San Diego).

human MCH-1 receptor [2] = biological target: T1, human MCH-1 receptor; test: MCH receptor binding ([125I]-MCH competition binding / SPA)
Experimental: as §1
Radioligand Binding Assay—Transiently transfected COS-7 cells or stably transfected CHO cells, expressing human MCH-1 receptor were seeded in multi-well culture plates one day before the assay. The number of cells per well was determined by the apparent expression efficiency of the cell line aiming at 5-10% binding of the added radioligand. […] The assay was performed in duplicate. Nonspecific binding was determined as the binding in the presence of 1 μM MCH (Bachem). Binding data were analyzed and IC50 values determined by non-linear regression using the Prism software (GraphPad software, San Diego). Values of the dissociation and inhibition constants (Kd and Ki) were estimated from competition binding using the equations Kd=IC50-L and Ki=IC50/(1+L/Kd), respectively, where L is the concentration of radioligand.
Membranes and beads were pre-incubated for 20 min. […] Moreover, CHO-K1 membranes expressing the hMCH receptor were purchased from Euroscreen (ES-370-M) and a final concentration of 2 μg/well were used. Binding data were analyzed and IC50 values determined by non-linear regression using the Prism software (GraphPad software, San Diego). Values of the inhibition constant (Ki) were estimated from competition binding using the equation Ki=IC50/(1+L/Kd), where L and Kd are the concentration and affinity constant, respectively, of the radioligand.

[3] = risk of Torsades de Pointes, from www.torsades.org; cited from earlier work
HERG channels [4] = biological target: T2, HERG channels (Homo sapiens, UniProt Q12809)
HERG channels [5] = biological target: T2, HERG channels; test: HERG selectivity method, whole-cell patch-clamp recordings
[6] = stimulated by 10 nM MCH, read-out: IP3 IC50
Throughout, for Risk Group: key: 1: Drugs that are generally accepted by authorities to have a risk of Torsades de Pointes (TdP); 2: Drugs that in some reports may be associated with TdP but at this time lack substantial evidence; 4: Drugs that, in some reports, have been weakly associated with TdP but that when used in usual dosages are unlikely to be a risk for TdP.

T2 sequence (Q12809 whole entry): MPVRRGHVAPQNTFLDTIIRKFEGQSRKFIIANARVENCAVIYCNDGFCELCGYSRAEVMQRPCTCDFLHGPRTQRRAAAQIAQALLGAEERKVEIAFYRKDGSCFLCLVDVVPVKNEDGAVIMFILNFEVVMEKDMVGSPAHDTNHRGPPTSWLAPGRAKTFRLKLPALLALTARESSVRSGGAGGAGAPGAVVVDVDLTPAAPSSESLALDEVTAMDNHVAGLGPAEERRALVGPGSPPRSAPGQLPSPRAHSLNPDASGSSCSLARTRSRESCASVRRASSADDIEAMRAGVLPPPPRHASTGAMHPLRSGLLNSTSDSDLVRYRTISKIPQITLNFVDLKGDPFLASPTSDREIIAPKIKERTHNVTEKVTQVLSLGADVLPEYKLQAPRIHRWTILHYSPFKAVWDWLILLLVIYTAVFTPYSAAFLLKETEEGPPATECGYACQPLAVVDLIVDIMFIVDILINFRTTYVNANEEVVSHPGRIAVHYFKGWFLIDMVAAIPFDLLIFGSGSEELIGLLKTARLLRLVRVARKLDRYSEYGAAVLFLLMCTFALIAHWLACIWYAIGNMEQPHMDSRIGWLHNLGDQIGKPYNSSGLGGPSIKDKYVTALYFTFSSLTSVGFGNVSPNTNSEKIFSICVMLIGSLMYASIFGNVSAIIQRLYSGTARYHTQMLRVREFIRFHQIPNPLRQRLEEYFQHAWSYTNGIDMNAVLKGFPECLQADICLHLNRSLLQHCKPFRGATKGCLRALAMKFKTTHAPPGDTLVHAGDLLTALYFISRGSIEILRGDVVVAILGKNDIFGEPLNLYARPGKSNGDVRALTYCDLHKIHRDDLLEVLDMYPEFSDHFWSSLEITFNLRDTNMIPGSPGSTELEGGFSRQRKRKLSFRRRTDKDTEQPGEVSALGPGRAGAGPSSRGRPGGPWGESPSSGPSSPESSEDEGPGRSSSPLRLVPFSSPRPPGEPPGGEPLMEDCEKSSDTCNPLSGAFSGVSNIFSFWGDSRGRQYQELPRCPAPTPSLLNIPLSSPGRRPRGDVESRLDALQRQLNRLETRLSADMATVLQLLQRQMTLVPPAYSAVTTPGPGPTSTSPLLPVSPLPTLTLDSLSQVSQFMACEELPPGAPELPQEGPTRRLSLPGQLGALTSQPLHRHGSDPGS
T1 sequence (Q99705 whole entry): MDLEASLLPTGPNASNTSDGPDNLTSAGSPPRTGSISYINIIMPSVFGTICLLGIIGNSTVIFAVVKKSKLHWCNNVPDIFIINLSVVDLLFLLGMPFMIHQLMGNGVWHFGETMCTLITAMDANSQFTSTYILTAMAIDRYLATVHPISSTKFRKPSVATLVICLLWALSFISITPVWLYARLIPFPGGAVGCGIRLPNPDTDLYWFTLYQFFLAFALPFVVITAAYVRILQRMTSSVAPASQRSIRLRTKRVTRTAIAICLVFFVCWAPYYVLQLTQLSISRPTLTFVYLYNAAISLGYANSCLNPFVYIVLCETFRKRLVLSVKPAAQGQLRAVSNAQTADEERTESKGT

IC50 (human MCH-1 receptor [1]; [6]) | IC50 (human MCH-1 receptor [2]) | Compound | Risk Group [3] | other results
2 µM | 0.28 µM | Cc1cc(N2CCN(C)CC2)nc2ccc(NC(=O)C(C)Oc3ccc(Cl)cc3Cl)cc12 (stereo not drawn) | – | –
– | – | CC(C)NCC(O)c1ccc(NS(C)(=O)=O)cc1 (racemic) [(±) sotalol] | 1 | Ki in μM ± S.D. (#) (HERG channels [4]): No effect at 100 (5)
– | – | CCCCc1oc2ccccc2c1C(=O)c1cc(I)c(OCCN(CC)CC)c(I)c1 [Amiodarone] | 1 | –
– | – | CN(C)CCC=C1c2ccccc2CCc2ccccc21 [Amitriptyline] | 4 | –
– | – | Clc1ccc2c(c1)C(N1CCNCC1)=Nc1ccccc1O2 [Amoxapine] | 4 | –
– | – | CC(C)COCC(CN(Cc1ccccc1)c1ccccc1)N1CCCC1 (stereo not drawn) [Bepridil] | 1 | –
– | – | CN1CCN(C(c2ccccc2)c2ccc(Cl)cc2)CC1 (stereo not drawn) [Chlorcyclizine] | – | Ki (HERG channels [5]): 4 ± 1.4 µM
– | – | CN(C)CCCN1c2ccccc2Sc2ccc(Cl)cc21 [Chlorpromazine] | 1 | –
– | – | CN1CCN(CC/C=C2/c3ccccc3Sc3ccc(S(=O)(=O)N(C)C)cc32)CC1 [Cis-Thiothixene] | – | Ki (HERG channels [5]; read-out: Ki in μM ± S.D. (#), HEK 293 cells stably expressing HERG+KCNE1, tail-current block, room temperature, Ki=koff/kon): 8.6 ± 2.7 µM
– | – | CNCCCN1c2ccccc2CCc2ccccc21 [Desipramine] | 4 | –
– | – | CN(C)CCC=C1c2ccccc2COc2ccccc21 [Doxepine] | 4 | –
0.042 µM | 0.011 µM | Cc1cc(N2CCN(C)CC2)nc2ccc(NC(=O)/C=C/c3ccc(OC(F)(F)F)cc3)cc12 [Example 16, (E)-N-[4-Methyl-2-(4-methyl-piperazin-1-yl)-quinolin-6-yl]-3-(4-trifluoromethoxy-phenyl)-acrylamide] | – | –
0.071 µM | 0.012 µM | Cc1cc(N2CCCNCC2)nc2ccc(NC(=O)COc3ccc(OC(F)(F)F)cc3)cc12 [Example 25, N-(2-[1,4]Diazepan-1-yl-4-methylquinolin-6-yl)-2-(4-trifluoromethoxyphenoxy)-acetamide] | – | –
0.063 µM | 0.041 µM | Cc1cc(N2CCC(N)CC2)nc2ccc(NC(=O)COc3ccc(Cl)cc3Cl)cc12 [Example 33, N-[2-(4-Amino-piperidin-1-yl)-4-methyl-quinolin-6-yl]-2-(2,4-dichloro-phenoxy)-acetamide] | – | –
0.023 µM | 0.05 µM | Cc1cc(N2CCN(CCO)CC2)nc2ccc(NC(=O)COc3ccc(OC(F)(F)F)cc3)cc12 [Example 38, N-{2-[4-(2-Hydroxy-ethyl)-piperazin-1-yl]-4-methyl-quinolin-6-yl}-2-(4-trifluoromethoxy-phenoxy)-acetamide] | – | –
– | 0.022 µM | Cc1cc(NCCN(C(C)C)C(C)C)nc2ccc(NC(=O)COc3ccc(OC(F)(F)F)cc3)cc12 [Example 40, N-[2-(2-Diisopropylamino-ethylamino)-4-methyl-quinolin-6-yl]-2-(4-trifluoromethoxy-phenoxy)-acetamide] | – | –

IC50 (human MCH-1 receptor [1]; [6]) | IC50 (human MCH-1 receptor [2]) | Compound | Risk Group [3] | other results
0.016 µM | 0.01 µM | Cc1cc(NCCN2CCOCC2)nc2ccc(NC(=O)COc3ccc(OC(F)(F)F)cc3)cc12 [Example 42, N-[4-Methyl-2-(2-morpholin-4-yl-ethylamino)-quinolin-6-yl]-2-(4-trifluoromethoxy-phenoxy)-acetamide] | – | –
0.19 µM | 0.021 µM | Cc1cc(NCC(C)(C)CN(C)C)nc2ccc(NC(=O)COc3ccc(OC(F)(F)F)cc3)cc12 [Example 45, N-[2-(3-Dimethylamino-2,2-dimethyl-propylamino)-4-methyl-quinolin-6-yl]-2-(4-trifluoromethoxy-phenoxy)-acetamide] | – | –
0.01 µM | 0.013 µM | CCN1CCCC1CNc1cc(C)c2cc(NC(=O)/C=C/c3ccc(OC(F)(F)F)cc3)ccc2n1 (stereo not drawn) [Example 62, (E)-N-{2-[(1-Ethyl-pyrrolidin-2-ylmethyl)-amino]-4-methyl-quinolin-6-yl}-3-(4-trifluoromethoxy-phenyl)-acrylamide] | – | –
– | – | Cc1cc(OCCN(C)C)nc2ccc(NC(=O)COc3ccc(Cl)cc3Cl)cc12 [Example 76, 2-(2,4-Dichloro-phenoxy)-N-[2-(2-dimethylamino-ethoxy)-4-methyl-quinolin-6-yl]-acetamide] | – | IC50 (human MCH-1 receptor [1]): 0.135 µM
0.72 µM | 0.037 µM | Cc1cc(N(C)CCN(C)C)nc2ccc(NC(=O)CCc3ccc(OC(F)(F)F)cc3)cc12 [Example 98, N-{2-[(2-Dimethylamino-ethyl)-methyl-amino]-4-methyl-quinolin-6-yl}-3-(4-trifluoromethoxy-phenyl)-propionamide] | – | –
0.063 µM | 0.01 µM | Cc1nc(N(C)CCCN(C)C)nc2ccc(NC(=O)COc3ccc(Cl)cc3Cl)cc12 [Example 137, 2(2,4-Dichlorophenoxy)N{2[(3-dimethylaminopropyl)methyl-amino]-4-methyl-quinazolin-6-yl}-acetamide] | – | –
0.474 µM | 0.063 µM | Cc1cc(N(C)CCN(C)C)nc2ccc(NC(=O)c3ccc(-c4ccc(C(F)(F)F)cc4)cc3)cc12 [Example 183, 4′-Trifluoromethyl-biphenyl-4-carboxylic acid {2-[(2-dimethylamino-ethyl)-methyl-amino]-4-methyl-quinolin-6-yl}-amide] | – | –
– | – | CNCCC(Oc1ccc(C(F)(F)F)cc1)c1ccccc1 (stereo not drawn) [Fluoxetine] | 4 | –
– | – | OCCN1CCN(CCCN2c3ccccc3Sc3ccc(C(F)(F)F)cc32)CC1 [Fluphenazine] | – | Ki (HERG channels [5]): 2.5 ± 0.57 µM
– | – | O=C(CCCN1CCC(O)(c2ccc(Cl)cc2)CC1)c1ccc(F)cc1 [Haloperidole] | 1 | Ki (HERG channels [4]): 0.17 µM
– | – | CN(C)CCCN1c2ccccc2CCc2ccccc21 [Imipramine] | 4 | –
– | – | CC(=O)N1CCN(c2ccc(OCC3COC(Cn4ccnc4)(c4ccc(Cl)cc4Cl)O3)cc2)CC1 (stereo not drawn) [Ketoconazole] | 4 | –
– | – | O=c1[nH]c2ccccc2n1C1CCN(CCCC(c2ccc(F)cc2)c2ccc(F)cc2)CC1 [Pimozide] | 1 | –
– | – | Cc1nc2n(c(=O)c1CCN1CCC(c3noc4cc(F)ccc34)CC1)CCCC2 [Risperidone] | 2 | –
– | – | CC(CN(C)C)CN1c2ccccc2CCc2ccccc21 (stereo not drawn) [Trimipramine] | 4 | Ki in μM ± S.D. (#) (HERG channels [4]): No effect at 10
